# According to patent US20040053234A1, “Polynucletides that control delta-6 desaturase genes and methods for identifying compounds for modulating delta-6 desaturase” (priority 2000, published 2004):
# Like-named read-outs stand apart in the source and are kept apart here. Marks after values point to notes of the source that are not given here.
# Legend:
# [1] = system: hD6D-1 control region; test: Luciferase activity of HepG2 clones stably transfected with hD6D-1 control region-luciferase construct pGh4015.1; type: cell-based, human
# Description: Stable transfection was performed using the HepG2 cell line, which was adapted to grow in tissue culture dishes treated with 0.1% gelatin. The day before transfection, the cells were plated into 60 mm tissue culture dishes, so that they were 85-95% confluent on the day of transfection. For each dish of cells to be transfected, 10 μg of plasmid DNA (pGh4015.1) along with 1 μg of the vector pRSV-NEO (ATCC# 37198), was diluted in 500 μl of Opti-MEM (GIBCO-BRL) without serum. For each dish of cells to be transfected, 10 μl of Lipofectamine 2000 reagent (GIBCO BRL) was diluted in 500 μl of Opti-MEM, and incubated at room temperature for 5 min. The diluted DNA was mixed with the diluted lipofectamine and incubated at room temperature for 20 min. The DNA-lipofectamine complexes (1 ml) were put directly into each dish of cells to be transfected and mixed gently by rocking the dish back and forth The cells were incubated at 37° C. in a CO2 incubator for 24 h Each transfected dish of cells was then passaged into two 150 mm tissue culture dishes. The following day, geneticin (GIBCO BRL) was added to the culture medium at a concentration of 800 μg/ml. The cells were kept in selection for 4 weeks. Clones were transferred into a 96-well plate (one clone per well) until they reached confluence. Subsequently, the clones were transferred to a 24-well plate before been tested for luciferase activity.
# The luciferase assays were done using the Luciferase Assay System from Promega (Promega, Wis.). Briefly, the cells grown in a 24well plate, were washed with PBS (Ca^2+ and Mg^2+ free) and lysed with about 100 μl of 1× CCLR (Cell Culture Lysis Reagent, Promega). Twenty μl of cell lysate was dispensed into a luminometer tube. The tube was placed in the luminometer (Berthold #9707, Monolight 3010, PharMingen, San Diego, Calif.) and 100 μl of Luciferase Assay Reagent (Promega) was injected into the tube. The luminometer was programmed to perform a 3-second measurement delay followed by a 15-second measurement read for luciferase activity. The results were expressed in Relative Light Unit per 15 seconds (RLU/15s).
# The HepG2 stable clone 19 and 72, were plated in a 24-well plate (one plate per clone) treated with 0.1% gelatin, containing α-MEM supplemented with 10% FBS (Fetal Bovine Serum) and 200 μg/ml of geneticin (all from GIBCO BRL). When the cells reached about 80% confluence, the culture medium was replace with Williams' medium E (GIBCO) containing insulin (1 μM), dexamethasone (1 nM) and 0.27% BSA (Bovine Serum Albumin) all from Sigma. Six wells for each plate were treated with DHA at a concentration of 0, 25, 50 and 100 μM. After an incubation time of 6, 24 and 48 h, the wells were washed with PBS and the cells lysed with 100 μl of 1× CCLR (Promega). The luciferase assays were performed using a single tube luminometer using the Luciferase Assay System from Promega as indicated above.
# [2] = system: delta-5-desaturase; test: Hepatic delta-5-desaturase activity in streptozotocin treated rats; type: in vivo, rat; conditions: hepatic microsomes
# Description: As described in other Examples, female Wistar rats were intraperitoneally (i.p.) injected with 50 mg of streptozotocin per kg of body weight. Three days later, animals received a second dose of streptozotocin (25 mg/kg body weight). Two and 7 weeks after the onset of diabetes, non-fasted control and streptozotocin (blood glucose levels 21 to >33 mmoles/L) treated rats were put under light halothane (15% in mineral oil) anaesthesia and sacrificed by exsanguination between 9:00 and 10:00 a.m. […] The absence of mitochondrial contamination was enzymatically assessed as previously described (Kilberg M. S. and Christensen H. N., 1979, Biochemistry, 18: 1525-1530). The protein concentration was measured by the method of Lowry et al. with bovine serum albumin as the standard (Lowry et al., 1951, J. Biol. Chem., 193: 265-275).
# (§1) The activities of delta-5 and delta-6 desaturases were determined by measuring the conversion of [1-^14C]20:3n-6 (dihomogamma-linolenic acid) to [1-^14C]20:4n-6 (arachidonic acid) and [1-^14C]18:2n-6 (linoleic acid) to [1-^14C]18:3n-6 (gamma-linolenic acid), respectively. […]
# (§2) Radiolabeled fatty acid methyl esters (FAME) were analyzed as previously described (de Antueno et al., 1993, Lipids, 28: 285-290). […]
# [3] = Plasma phospholipid arachidonic acid content in streptozotocin-induced diabetic rats; type: in vivo, rat
# Description: Eighteen rats were injected with 75 mg STZ/kg bd wt to induce the diabetic state. After 4 days the blood glucose level in each of the STZ rats was checked. The blood sample was obtained from the tail vein. […] The diabetic rats were housed 2 per cage. After 2 weeks, approximately one half of the diabetic rats and control rats were sacrificed. After 7 weeks, the remaining diabetic and control rats were sacrificed. By sacrificing controls at the same time we eliminated any possible age effect when completing our data analysis. The rats were sacrificed by exsanguination and tissues were removed for fatty acid analyses. […]
# The different lipid classes from the RBCs (phospholipids), plasma and liver (phospholipids, free fatty acids, triglycerides and cholesterol esters) were separated using neutral lipid thin-layer chromatography. […] Compounds were detected by spraying the plates with 2,7-dichlorofluorescein and the silica gel containing each of the lipid class bands was scraped from the plate and placed in screw cap test tubes.
# Four ml of BF3-methanol was added to the scraped silica gel fractions or the dry cholesterol ester fraction and heated for 30 min at 90° C. […] The fatty acid methyl esters (FAME) were dissolved in HPLC grade hexane and analyzed by gas chromatography. […]
# [4] = system: delta-6-desaturase; type: in vivo, rat; conditions: for D6D activity: hepatic microsomes
# Description: As described in other Examples, female Wistar rats were intraperitoneally (i.p.) injected with 50 mg of streptozotocin per kg of body weight. Three days later, animals received a second dose of streptozotocin (25 mg/kg body weight). Two and 7 weeks after the onset of diabetes, non-fasted control and streptozotocin (blood glucose levels 21 to >33 mmoles/L) treated rats were put under light halothane (15% in mineral oil) anaesthesia and sacrificed by exsanguination between 9:00 and 10:00 a.m. Under these experimental conditions, variations in enzyme activity caused by circadian rhythm (Actis Dato et al., 1973, Lipids, 8: 1-6) can be avoided and a substantial (although submaximal) activity of liver desaturase can be obtained (Actis Dato et al., 1973, Lipids, 8: 1-6 and Inkpen et al., 1969, J. Lipid Res., 10: 277-282). Livers were quickly rinsed with cold 0.9% NaCl solution, weighed and minced with scissors. All procedures were performed at 4° C. unless otherwise specified. Microsomes were isolated by differential ultracentrifugation as previously described (de Antueno et al., 1994, Lipids, 29: 327-331). Briefly, livers were homogenized in a solution (1:3 w/v) containing 0.25 M sucrose, 62 mM potassium phosphate buffer (pH 7.0), 0.15 M KCl, 1.5 mM N-acetylcysteine, 5 mM MgCl2, and 0.1 mM EDTA using 4 strokes of a Potter-Elvehjem tissue homogenizer. […] The absence of mitochondrial contamination was enzymatically assessed as previously described (Kilberg M. S. and Christensen H. N., 1979, Biochemistry, 18: 1525-1530). The protein concentration was measured by the method of Lowry et al. with bovine serum albumin as the standard (Lowry et al., 1951, J. Biol. Chem., 193: 265-275).
# as §1, §2
smiles,measurement,setting,value
"CC/C=C\C/C=C\C/C=C\C/C=C\C/C=C\C/C=C\CCC(=O)O [DHA, docosahexaenoic acid]",Luciferase activity,"[1]; HepG2 clone 19, DHA 25 μM, 6 h",3.91E+06 RLU/15 s
same,Luciferase activity,"[1]; HepG2 clone 19, DHA 25 μM, 24 h",8.33E+06 RLU/15 s
same,Luciferase activity,"[1]; HepG2 clone 19, DHA 25 μM, 48 h",1.35E+07 RLU/15 s
same,Luciferase activity,"[1]; HepG2 clone 19, DHA 50 μM, 6 h",3.96E+06 RLU/15 s
same,Luciferase activity,"[1]; HepG2 clone 19, DHA 50 μM, 24 h",6.32E+06 RLU/15 s
same,Luciferase activity,"[1]; HepG2 clone 19, DHA 50 μM, 48 h",8.73E+06 RLU/15 s
same,Luciferase activity,"[1]; HepG2 clone 19, DHA 100 μM, 6 h",2.11E+06 RLU/15 s
same,Luciferase activity,"[1]; HepG2 clone 19, DHA 100 μM, 24 h",3.87E+06 RLU/15 s
same,Luciferase activity,"[1]; HepG2 clone 19, DHA 100 μM, 48 h",4.16E+06 RLU/15 s
same,Luciferase activity,"[1]; HepG2 clone 72, DHA 25 μM, 6 h",8.27E+05 RLU/15 s
same,Luciferase activity,"[1]; HepG2 clone 72, DHA 25 μM, 24 h",2.66E+06 RLU/15 s
same,Luciferase activity,"[1]; HepG2 clone 72, DHA 25 μM, 48 h",3.68E+06 RLU/15 s
same,Luciferase activity,"[1]; HepG2 clone 72, DHA 50 μM, 6 h",6.69E+05 RLU/15 s
same,Luciferase activity,"[1]; HepG2 clone 72, DHA 50 μM, 24 h",1.43E+06 RLU/15 s
same,Luciferase activity,"[1]; HepG2 clone 72, DHA 50 μM, 48 h",2.18E+06 RLU/15 s
same,Luciferase activity,"[1]; HepG2 clone 72, DHA 100 μM, 6 h",3.07E+05 RLU/15 s
same,Luciferase activity,"[1]; HepG2 clone 72, DHA 100 μM, 24 h",8.55E+05 RLU/15 s
same,Luciferase activity,"[1]; HepG2 clone 72, DHA 100 μM, 48 h",9.80E+05 RLU/15 s
"CN(N=O)C(=O)N[C@H]1C(O)O[C@H](CO)[C@@H](O)[C@@H]1O (stereo partly drawn) [STZ, 2-deoxy-2-[([methylnitroso-amino]carbonyl)amino]-D-glucopyranose]",D5D activity,[2]; 2 weeks after STZ treatment,195.6 ± 56^b pmol/mg microsomal protein/min
same,D5D activity,[2]; 7 weeks after STZ treatment,129.7 ± 30^d pmol/mg microsomal protein/min
same,Reduction of plasma phospholipid AA content,[3]; 2 week streptozotocin-induced diabetic rats,31%
same,Reduction of plasma phospholipid AA content,[3]; 7 week streptozotocin-induced diabetic rats,27%
same,D6D activity,[4]; 2 weeks after STZ treatment,125.4 ± 34^a pmol/mg microsomal protein/min
same,D6D activity,[4]; 7 weeks after STZ treatment,102.8 ± 29^c pmol/mg microsomal protein/min
same,Reduction of delta-6-desaturase activity in hepatic microsomes compared to control rats,[4]; streptozotocin diabetic rats,37%
